In ChEMBL document CHEMBL5724696, “Autophagy assay results for EUbOPEN Chemogenomics Library” (2024):
“And” between values parts separate entries of the source, which are not always exact repeats. Equal values may be shown once.

Columns and labels:
Format in all cases: functional, Homo sapiens
[1] = tested on: TERT-RPE1; assay: (§1) Here: values are normalized to the negative (DMSO; defined as 0% autophagy induction) and positive (250nM Torin1; mTOR inhibitor; defined as maximal inducer of autophagy = 100%) control compounds and represented as % of autophagy induction. […] The impact of autophagy induction on cells is complex and depends on the affected target. As such, the magnitude of a phenotype may not be equally mirrored in the %-value of autophagy induction and vice versa. The dynamics of the induction may indicate the mode of activation: e.g. activation via phosphorylation or a signaling cascade may occur fast, while activation via transcription factors may take considerably longer. […] Of note, treatment concentrations may be sub-optimal for specific compounds, leading to false negative annotations.; settings: Culturing Media DMEM/F12 (1:1), 1 % Penicillin/Streptomycin, 10% Fetal bovin serum Add-On: No, Screening Media Control DMEM/F12 (1:1), Screening Media Samples DMEM/F12 (1:1)
[2] = tested on: U2OS; assay: as §1; settings: Culturing Media DMEM, 1 % Penicillin/Streptomycin, 10% Fetal bovin serum Add-On: No, Screening Media Control DMEM, Screening Media Samples DMEM
[3] = tested on: U2OS; assay: as §1; settings: Culturing Media DMEM, 1 % Penicillin/Streptomycin, 10% Fetal bovin serum Add-On: No, Screening Media Control DMEM, Screening Media Samples DMEM; remark: listed apart in the source
[4] = Compound Concentration 0.5 uM, Timepoint 12 hours
[5] = Compound Concentration 0.5 uM, Timepoint 24 hours
[6] = Compound Concentration 0.5 uM, Timepoint 36 hours
[7] = Compound Concentration 0.5 uM, Timepoint 60 hours
[8] = Compound Concentration 2 uM, Timepoint 12 hours
[9] = Compound Concentration 2 uM, Timepoint 24 hours
[10] = Compound Concentration 2 uM, Timepoint 36 hours
[11] = Compound Concentration 2 uM, Timepoint 60 hours
[12] = Compound Concentration 10 uM, Timepoint 12 hours
[13] = Compound Concentration 10 uM, Timepoint 24 hours
[14] = Compound Concentration 10 uM, Timepoint 36 hours
[15] = Compound Concentration 10 uM, Timepoint 60 hours

SMILES	autophagy induction [2, 4]	autophagy induction [2, 5]	autophagy induction [2, 6]	autophagy induction [2, 7]	autophagy induction [2, 8]	autophagy induction [2, 9]	autophagy induction [2, 10]	autophagy induction [2, 11]	autophagy induction [2, 12]	autophagy induction [2, 13]	autophagy induction [2, 14]	autophagy induction [2, 15]	autophagy induction [3, 4]	autophagy induction [3, 5]	autophagy induction [3, 6]	autophagy induction [3, 7]	autophagy induction [3, 8]	autophagy induction [3, 9]	autophagy induction [3, 10]	autophagy induction [3, 11]	further results
COc1ccc(NS(=O)(=O)c2sc3ccc(Cl)cc3c2C)cc1N1CCNCC1.Cl	2.987%	-0.6318%	-59.945%	-1.761%	6.036%	-0.4148%	-59.1656%	-2.731%	1.788%	0.7642%	-61.0668%	-6.058%	-11.3104%	-5.358%	-7.917%	-7.314%	6.008%	2.399%	-3.71%	-14.5759%	autophagy induction ([1]; Compound Concentration 0.5 uM, Timepoint 12 hours, 12 h, 0.5 µM): -2.268% and 1.364%; autophagy induction ([1]; Compound Concentration 0.5 uM, Timepoint 24 hours, 24 h, 0.5 µM): -0.6721% and -2.131%; autophagy induction ([1]; Compound Concentration 0.5 uM, Timepoint 36 hours, 36 h, 0.5 µM): -2.429% and -0.9432%; autophagy induction ([1]; Compound Concentration 0.5 uM, Timepoint 60 hours, 60 h, 0.5 µM): -2.224% and -1.994%; autophagy induction ([1]; Compound Concentration 2 uM, Timepoint 12 hours, 12 h, 2 µM): 1.355% and 0.7844%; autophagy induction ([1]; Compound Concentration 2 uM, Timepoint 24 hours, 24 h, 2 µM): 2.1639% and -0.4459%; autophagy induction ([1]; Compound Concentration 2 uM, Timepoint 36 hours, 36 h, 2 µM): 0.7328% and -1.399%; autophagy induction ([1]; Compound Concentration 2 uM, Timepoint 60 hours, 60 h, 2 µM): 3.483% and -0.5872%; autophagy induction ([1]; Compound Concentration 10 uM, Timepoint 12 hours, 12 h, 10 µM): 10.6024% and -4.741%; autophagy induction ([1]; Compound Concentration 10 uM, Timepoint 24 hours, 24 h, 10 µM): 10.2969% and -5.794%; autophagy induction ([1]; Compound Concentration 10 uM, Timepoint 36 hours, 36 h, 10 µM): 13.8741% and -5.163%; autophagy induction ([1]; Compound Concentration 10 uM, Timepoint 60 hours, 60 h, 10 µM): 16.669% and -5.902%; autophagy induction [3, 12]: 10.7956%; autophagy induction [3, 13]: 3.064%; autophagy induction [3, 14]: -4.691%; autophagy induction [3, 15]: -6.499%
O=C(Nc1ccc(Cl)cc1)Nc1cccc(-c2cccc(N3CCCC3)n2)c1	3.433%	-0.7352%	-0.9133%	-1.608%	-0.4509%	-1.587%	-2.698%	-2.799%	-2.177%	-0.7353%	-4.281%	0.461%	17.3616%	17.7757%	11.2699%	1.747%	20.6353%	15.806%	8.553%	8.133%	autophagy induction [1, 4]: -4.744%; autophagy induction [1, 5]: -3.44%; autophagy induction [1, 6]: 1.901%; autophagy induction [1, 7]: 11.3473%; autophagy induction [1, 8]: -2.257%; autophagy induction [1, 9]: -2.102%; autophagy induction [1, 10]: -2.6063%; autophagy induction [1, 11]: -0.1832%; autophagy induction [1, 12]: -0.5349%; autophagy induction [1, 13]: 20.6675%; autophagy induction [1, 14]: 44.4615%; autophagy induction [1, 15]: 64.0305%; autophagy induction [3, 12]: -2.269%; autophagy induction [3, 13]: 13.0876%; autophagy induction [3, 14]: 22.7984%; autophagy induction [3, 15]: 31.1337%
